Experimental data as given in patent US20030157194A1, “Method for treating cellulite” (priority 2002, published 2003).

Tests used:
cellulite-affected skin [1] = assay: topical treatment of cellulite-affected skin on the sides of a test subject by gliding a solid salt block; format: in vivo, human; details: person
Text: […] This person may be a afflicted with cellulite on their sides, between their armpits and their waist.
Rather, […] sides are left moistened. Then, […] areas of his sides, by very gently gliding the block in dabbing motions, circular motions, up and down motions, or zigzag motions (the motions being insufficient to cause debridement and abrasion of the affected skin) on the moistened areas for about 15 to about 30 seconds. […]
This once daily application is continued for 5 weeks.

cellulite-affected skin [2] = assay: topical treatment of cellulite-affected skin on thighs and buttocks of female persons by gliding a solid salt block; format: in vivo, human

SMILES: [Cl-].[Na+] [NaCl, sodium chloride]
- state of cellulite on continued application (cellulite-affected skin [1]; continued once per day application after 5 weeks): remain smooth and free of cellulite
- state of cellulite at the end of 5 weeks (cellulite-affected skin [1]; pre-moistened skin, once daily, end of 5 weeks): completely eliminated
- state of cellulite on continued application (cellulite-affected skin [2]; female, continued once per day application after 5 weeks): remained free of cellulite
- state of cellulite at the end of 2 weeks (cellulite-affected skin [2]; person, pre-moistened skin, once daily application for about 15 to 30 seconds, end of 2 weeks): alleviated
- state of cellulite at the end of 5 weeks (cellulite-affected skin [2]; person, pre-moistened skin, once daily application, end of 5 weeks): completely eliminated
